The subject of the data set is mouse. The experiment in a line: Behavioral despair test in mouse (forced swim test), IP administration.
Where [1] appears, read: STUDY A, 150 mg/kg i.p. 30 min prior to testing, hemisulfate monohydrate, 150 mg/kg.
Where [2] appears, read: STUDY A, 150 mg/kg i.p. 30 min prior to testing, 150 mg/kg.

Three compounds from US8198268B2, “Tianeptine sulfate salt forms and methods of making and using the same” (Janssen Biotech, Inc., priority 2008, dated 2012) can be followed below.

For the compound `CN(C)CCCN1c2ccccc2CCc2ccccc21` [Imipramine, reference compound], under “STUDY A, 32 mg/kg i.p. 30 min prior to testing”, the “Duration of Immobility mean ± s.e.m.” value was 64.1 ± 16.1 s. The “Duration of Immobility % change from control” value was −68% (STUDY A, 32 mg/kg i.p. 30 min prior to testing, 32 mg/kg); −68% (STUDY A, 32 mg/kg i.p. 30 min prior to testing, listed as imipramine hydrochloride, 32 mg/kg); −88% (STUDY B, 32 mg/kg i.p. 30 min prior to testing, 32 mg/kg); −88% (STUDY B, 32 mg/kg i.p. 30 min prior to testing, listed as imipramine hydrochloride, 32 mg/kg).

Take `CN1c2ccccc2C(NCCCCCCC(=O)O)c2ccc(Cl)cc2S1(=O)=O` (stereo not shown) [tianeptine hemisulfate monohydrate, 7-[(3-chloro-6,11-dihydro-6-methyldibenzo[c,f][1,2]thiazepin-11-yl)amino]heptanoic acid S,S-dioxide hemisulfate monohydrate]: the “Duration of Immobility mean ± s.e.m.” value reads like this: (STUDY A, 100 mg/kg i.p. 30 min prior to testing) 83.1 ± 21.2 s; under setting [1], 115.5 ± 13.6 s; (STUDY A, 200 mg/kg i.p. 30 min prior to testing) 108.8 ± 19.8 s; (STUDY B, 30 mg/kg i.p. 30 min prior to testing) 25.8 ± 8.7 s; (STUDY B, 60 mg/kg i.p. 30 min prior to testing) 29.7 ± 9.7 s. The “Duration of Immobility % change from control” value (STUDY A, 100 mg/kg i.p. 30 min prior to testing, hemisulfate monohydrate, 100 mg/kg) is given as −59%; the “Duration of Immobility % change from control” value under setting [1] is −43%; the “Duration of Immobility % change from control” value (STUDY A, 200 mg/kg i.p. 30 min prior to testing, hemisulfate monohydrate, 200 mg/kg) is −46%; the “Duration of Immobility % change from control” value (STUDY B, 30 mg/kg i.p. 30 min prior to testing, hemisulfate monohydrate, 30 mg/kg) is −86%; the “Duration of Immobility % change from control” value (STUDY B, 60 mg/kg i.p. 30 min prior to testing, hemisulfate monohydrate, 60 mg/kg) is recorded as −83%. In addition, the “abnormal behavior prior to the test” value (STUDY B, 30 mg/kg and 60 mg/kg i.p.) is “abnormal behavior (including Straub tail and circling) was observed in all ten mice”. In addition, the “conclusion of STUDIES A and B” value (dose-range 30 mg/kg-200 mg/kg i.p.) is on record as “antidepressant-like activity”.

In the case of `CN1c2ccccc2C(NCCCCCCC(=O)O)c2ccc(Cl)cc2S1(=O)=O` (stereo not shown) [tianeptine sodium, reference compound], under setting [2], the “Duration of Immobility % change from control” value was −50% and the “Duration of Immobility mean ± s.e.m.” value was 102.0 ± 13.0 s.
